Reference: US20250145665A1, “MACROCYCLIC PEPTIDES USEFUL AS MODULATORS OF TNF ALPHA” (Bristol-Myers Squibb Company, priority 2023, published 2025)
Starred links: 1 amine or outer side, 2 acyl side, 3 side chain; linkers in the order of their positions; H or OH if unused. Positions of bridges follow the written chain, without caps; N, C: chain ends. Non-standard residues stand in square brackets, D forms with d. Residues, ends and D or L forms follow the SMILES beside them. *: point of attachment. X5 = Cn1nc(C(=O)Nc2ccc(-c3ccc(C[C@H](N[*:1])C(=O)[*:2])cc3)cc2)c2ccccc21; Bip(4'-NHBz) = N[C@@H](Cc1ccc(-c2ccc(NC(=O)c3ccccc3)cc2)cc1)C(=O)O; Bip(4'-COOH) = N[C@@H](Cc1ccc(-c2ccc(C(=O)O)cc2)cc1)C(=O)O; Bip(4'-NHAc) = CC(=O)Nc1ccc(-c2ccc(C[C@H](N)C(=O)O)cc2)cc1; X70 = O=C([C@H](Cc1ccc(-c2ccc(CN[*:3])cc2)cc1)N[*:1])[*:2]; Ala(imidazol-2-yl) = N[C@@H](Cc1ncc[nH]1)C(=O)O; Ala(morpholin-4-yl) = N[C@@H](CN1CCOCC1)C(=O)O; Benzoyl(3-OCH2COOH) = O=C(O)COc1cccc(C(=O)*)c1; Phe(3-CONH2) = NC(=O)c1cccc(C[C@H](N)C(=O)O)c1; Bip = N[C@@H](Cc1ccc(-c2ccccc2)cc1)C(=O)O; Ala(2-furyl) = N[C@@H](Cc1ccco1)C(=O)O; 2Pal = N[C@@H](Cc1ccccn1)C(=O)O; Cha = N[C@@H](CC1CCCCC1)C(=O)O; Aze = O=C(O)[C@@H]1CCN1; Sar = CNCC(=O)O

target: TNFα (Homo sapiens, UniProt P01375); test: TNF-Induced HEK-Blue Assay; type: cell-based; details: not given
Sequence (P01375 77-233 limits assumed): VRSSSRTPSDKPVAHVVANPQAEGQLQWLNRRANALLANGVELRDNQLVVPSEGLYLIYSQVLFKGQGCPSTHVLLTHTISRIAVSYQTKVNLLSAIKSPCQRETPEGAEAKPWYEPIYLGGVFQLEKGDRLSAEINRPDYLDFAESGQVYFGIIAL

| SMILES | IC50 [nM] |
| --- | --- |
| CC(C)C[C@@H]1NC(=O)[C@H](Cc2cnc[nH]2)NC(=O)[C@H](C(C)C)NC(=O)[C@@H]2CCCN2C(=O)[C@H](C(C)C)NC(=O)[C@@H](CCCNC(=N)N)NC(=O)[C@H](CC(=O)O)NC(=O)[C@H](Cc2ccccc2)NC(=O)CN(C)C(=O)[C@H](Cc2ccc(-c3ccc(NC(=O)c4ccccc4)cc3)cc2)NC(=O)[C@H](Cc2ccc(-c3ccccc3)cc2)NC(=O)[C@H](CN2CCOCC2)NC(=O)CSC[C@@H](C(=O)NCC(N)=O)NC1=O [Example 491] ({CH2CO}-[Ala(morpholin-4-yl)][Bip][Bip(4'-NHBz)][Sar]FD[dR]VPVHLCG-NH2; thioether N-13) | 50 to 200 |

same assay, conditions: HEK-Blue-CD40L cells, NF-kB-driven secreted alkaline phosphatase reporter; TNFα 0.5 ng/ml; 18 h; read-out: TNF induced HEK-Blue assay IC50 value

| SMILES | IC50 [nM] |
| --- | --- |
| CC(C)C[C@@H]1NC(=O)[C@H](Cc2ccccn2)NC(=O)[C@H](C(C)C)NC(=O)[C@@H]2CCCN2C(=O)[C@H](C(C)C)NC(=O)[C@@H](CCCNC(=N)N)NC(=O)[C@H](CC(=O)O)NC(=O)[C@H](Cc2ccc(O)cc2)NC(=O)CN(C)C(=O)[C@H](Cc2ccc(-c3ccc(NC(=O)c4nn(C)c5ccccc45)cc3)cc2)NC(=O)[C@H](Cc2ccc(-c3ccc(C(=O)O)cc3)cc2)NC(=O)[C@H](CC2CCCCC2)NC(=O)CSC[C@@H](C(=O)NCC(N)=O)NC1=O [Example 339] ({CH2CO}-[Cha][Bip(4'-COOH)][X5][Sar]YD[dR]VPV[2Pal]LCG-NH2; thioether N-13) | < 50 |
| CC[C@H](C)[C@@H]1NC(=O)[C@@H]2CCCN2C(=O)[C@H]([C@@H](C)CC)NC(=O)[C@@H](CCCNC(=N)N)NC(=O)[C@H](CC(=O)O)NC(=O)[C@H](Cc2ccccc2)NC(=O)CN(C)C(=O)[C@H](Cc2ccc(-c3ccc(CNC(=O)c4cccc(OCC(=O)O)c4)cc3)cc2)NC(=O)[C@H](Cc2ccc(-c3ccccc3)cc2)NC(=O)[C@H](CC2CCCCC2)NC(=O)CSC[C@@H](C(=O)NCC(N)=O)NC(=O)[C@H](CC(C)C)NC(=O)[C@H](Cc2ncc[nH]2)NC1=O [Example 399] ({CH2CO}-[Cha][Bip][X70](Benzoyl(3-OCH2COOH))[Sar]FD[dR]IPI[Ala(imidazol-2-yl)]LCG-NH2; thioether N-13) | 200 to 2000 |

Results, then the compound that gave them:

| IC50 [nM] | SMILES |
| --- | --- |
| < 50 | CC(=O)Nc1ccc(-c2ccc(C[C@@H]3NC(=O)[C@H](Cc4ccc(-c5ccc(C(=O)O)cc5)cc4)NC(=O)[C@H](CN4CCOCC4)NC(=O)CSC[C@@H](C(=O)NCC(N)=O)NC(=O)[C@H](CC(C)C)NC(=O)[C@H](Cc4cnc[nH]4)NC(=O)[C@H](C(C)C)NC(=O)[C@@H]4CCCN4C(=O)[C@H](C(C)C)NC(=O)[C@@H](CCCNC(=N)N)NC(=O)[C@H](CC(=O)O)NC(=O)[C@H](Cc4ccco4)NC(=O)CN(C)C3=O)cc2)cc1 [Example 520] ({CH2CO}-[Ala(morpholin-4-yl)][Bip(4'-COOH)][Bip(4'-NHAc)][Sar][Ala(2-furyl)]D[dR]VPVHLCG-NH2; thioether N-13) |
| < 50 | CC(=O)Nc1ccc(-c2ccc(C[C@@H]3NC(=O)[C@H](Cc4ccc(-c5ccc(C(=O)O)cc5)cc4)NC(=O)[C@H](CC4CCCCC4)NC(=O)CSC[C@@H](C(=O)NCC(N)=O)NC(=O)[C@H](CC(C)C)NC(=O)[C@H](Cc4cccc(C(N)=O)c4)NC(=O)[C@H](C(C)C)NC(=O)[C@@H]4CCCN4C(=O)[C@H](C(C)C)NC(=O)[C@@H](CCCNC(=N)N)NC(=O)[C@H](CC(=O)O)NC(=O)[C@H](Cc4ccccn4)NC(=O)CN(C)C3=O)cc2)cc1 [Example 251] ({CH2CO}-[Cha][Bip(4'-COOH)][Bip(4'-NHAc)][Sar][2Pal]D[dR]VPV[Phe(3-CONH2)]LCG-NH2; thioether N-13) |
| 200 to 2000 | CC(C)C[C@@H]1NC(=O)[C@H](CCCNC(=N)N)NC(=O)[C@H](C(C)C)NC(=O)[C@@H]2CCN2C(=O)[C@H](C(C)C)NC(=O)[C@H](CCCNC(=N)N)NC(=O)[C@H](CC(=O)O)NC(=O)[C@@H]2CCCN2C(=O)CN(C)C(=O)[C@H](Cc2ccc(-c3ccccc3)cc2)NC(=O)[C@H](Cc2ccc(-c3ccccc3)cc2)NC(=O)[C@H](Cc2ccccc2)NC(=O)CSC[C@@H](C(=O)NCC(N)=O)NC1=O [Example 42] ({CH2CO}-F[Bip][Bip][Sar]PDRV[Aze]VRLCG-NH2; thioether N-13) |
